Consider 18 compounds from ChEMBL document CHEMBL1154628, “Discovery and optimization of substituted 1-(1-phenyl-1H-pyrazol-3-yl)methanamines as potent and efficacious type II calcimimetics” (J Med Chem, 2009).

The target of data set [1] is T1, Extracellular calcium-sensing receptor (Homo sapiens, UniProt P41180).
T1 sequence (P41180 whole entry): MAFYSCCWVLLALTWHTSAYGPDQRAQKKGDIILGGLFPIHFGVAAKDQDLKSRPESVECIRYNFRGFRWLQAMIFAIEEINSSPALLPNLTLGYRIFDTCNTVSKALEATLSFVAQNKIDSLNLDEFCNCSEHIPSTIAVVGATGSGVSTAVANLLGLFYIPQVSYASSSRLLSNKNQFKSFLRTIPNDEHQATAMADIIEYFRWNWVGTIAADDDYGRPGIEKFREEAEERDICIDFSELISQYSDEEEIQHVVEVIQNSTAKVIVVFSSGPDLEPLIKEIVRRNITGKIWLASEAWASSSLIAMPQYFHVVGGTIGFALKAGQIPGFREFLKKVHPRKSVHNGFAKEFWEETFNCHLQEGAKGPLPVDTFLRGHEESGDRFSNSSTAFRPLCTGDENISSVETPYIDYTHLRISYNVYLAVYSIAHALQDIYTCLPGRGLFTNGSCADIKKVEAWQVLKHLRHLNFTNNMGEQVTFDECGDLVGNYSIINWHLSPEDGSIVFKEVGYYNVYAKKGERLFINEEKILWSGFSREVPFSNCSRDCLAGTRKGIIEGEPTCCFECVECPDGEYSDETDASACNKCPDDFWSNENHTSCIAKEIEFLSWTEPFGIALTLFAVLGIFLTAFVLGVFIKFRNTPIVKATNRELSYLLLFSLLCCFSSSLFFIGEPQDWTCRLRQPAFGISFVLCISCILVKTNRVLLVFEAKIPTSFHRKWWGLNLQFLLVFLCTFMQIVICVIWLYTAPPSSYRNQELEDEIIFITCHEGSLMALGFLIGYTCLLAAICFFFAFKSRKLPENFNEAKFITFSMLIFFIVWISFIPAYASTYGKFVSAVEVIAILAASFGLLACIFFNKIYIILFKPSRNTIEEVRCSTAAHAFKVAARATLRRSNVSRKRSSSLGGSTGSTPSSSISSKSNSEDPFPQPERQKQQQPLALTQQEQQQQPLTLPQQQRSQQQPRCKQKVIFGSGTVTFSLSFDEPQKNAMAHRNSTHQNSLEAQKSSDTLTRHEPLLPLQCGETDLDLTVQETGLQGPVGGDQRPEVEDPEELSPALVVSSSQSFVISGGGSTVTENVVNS
In words: Activity at human CaSR expressed in HEK293 cells assessed as calcium release by FLIPR assay. It counts as functional, cell-based.

The subject of data set [2] is Rattus norvegicus. Nature of the data set: Clearance in Sprague-Dawley rat at 0.5 mg/kg, iv. It counts as ADME, organism-based. On the set-up: dose 0.5 mg/kg, route intravenous. Conditions: in vivo.
Data set [3] in a line: Volume of distribution at steady state in Sprague-Dawley rat at 0.5 mg/kg, iv. It is filed as ADME, organism-based. More on the design: dose 0.5 mg/kg, route intravenous. Conditions: in vivo, read-out: Vdss.
A short description of data set [4]: Mean residence time in Sprague-Dawley rat at 0.5 mg/kg, iv. It is filed as ADME, organism-based. More on the design: dose 0.5 mg/kg, route intravenous. To be noted: in vivo.
The test system of data set [5] is Rattus norvegicus. In words: AUC in Sprague-Dawley rat at 2 mg/kg, po. More on the design: dose 2 mg/kg, route oral. It counts as ADME, organism-based, Plasma. Conditions: in vivo.
Data set [6] concerns Rattus norvegicus. Nature of the data set: Oral bioavailability in Sprague-Dawley rat at 2 mg/kg. It is filed as ADME, organism-based. To be noted: in vivo.
The test system of data set [7] is Rattus norvegicus. Nature of the data set: Inhibition of hyperparathyroidism in Sprague-Dawley rat pharmacodynamic model assessed as PTH levels at 3 mg/kg, po. It is filed as functional.
Data set [8] concerns Rattus norvegicus. In words: Cmax in Sprague-Dawley rat at 2 mg/kg, po. It is filed as ADME, organism-based. On the set-up: dose 2 mg/kg, route oral. To be noted: in vivo.
In data set [9] the test system is Rattus norvegicus. In words: Inhibition of hyperparathyroidism in Sprague-Dawley rat pharmacodynamic model assessed as decrease in PTH levels at 30 mg/kg, po. It is filed as functional, organism-based. On the set-up: dose 30 mg/kg. Conditions: Thyroid gland.

Molecules are shown by their SMILES. pEC50: −log10 of the molar value. Calls of active or inactive are those of the source. The rule behind the calls is not given here.

Turning to `C[C@@H](NCc1nc(-c2ccccc2)cn1C)c1ccccc1`, the negative logarithm of the EC50 (pEC50) in data set [1] is less than 5.30.

With `C[C@@H](N[C@H](C)c1ccn(-c2ccc(C(F)(F)F)cc2)n1)c1ccccc1`, in [1], the pEC50 is 6.63.

Turning to `C[C@@H](N[C@H](C)c1ccn(-c2ccc(C(F)(F)F)cc2)n1)c1cccc(F)c1`, in data set [1], the pEC50 was 6.83.

Take `C[C@@H](NCc1nc(-c2ccccc2)co1)c1ccccc1`: in [1], the pEC50 was less than 5.30.

As for `COc1cc([C@@H](C)N[C@H](C)c2cccc(Cl)c2)nn1-c1ccc(C(F)(F)F)cc1`, in data set [1], the negative logarithm of the EC50 (pEC50) is 7.39.

With `C[C@@H](NCc1cnc(-c2ccccc2)s1)c1ccccc1`, the negative logarithm of the EC50 (pEC50) in data set [1] is less than 5.30.

In the case of `C[C@@H](NCc1nc(-c2ccccc2)cs1)c1ccccc1`, in [1], the pEC50 was less than 5.30.

Regarding `COc1cc([C@@H](C)N[C@H](C)c2cccc(Cl)c2)nn1-c1ccc(C(=O)O)cc1`, in data set [1], the pEC50 was 5.72.

Regarding `CC(C)[C@@H](N[C@H](C)c1ccccc1)c1ccn(-c2ccc(C(F)(F)F)cc2)n1`, the negative-log EC50 (pEC50) in data set [1] is 5.63.

For the compound `COc1cc([C@@H](C)N[C@H](C)c2cccc(Cl)c2)nn1-c1ccc(Br)cc1`, in data set [1], the negative-log EC50 (pEC50) was 7.64. Further, the CL in the data set on Rattus norvegicus [2] was 21.7 mL/min/kg. Moreover, the Vd in [3] is 7 L/kg. In addition, the MRT in data set [4] is 11.8 h. For the same compound, the area under the curve (AUC) in the data set with Rattus norvegicus [5] turned out to be 444 ng·h/mL. Besides, the F in the data set with Rattus norvegicus [6] was 24%. For the same compound, the Activity with Rattus norvegicus [7] is less than 3 pg/mL.

For `CC[C@@H](N[C@H](C)c1ccccc1)c1ccn(-c2ccc(C(F)(F)F)cc2)n1`, the negative logarithm of the EC50 (pEC50) in data set [1] is 5.93.

For `C[C@@H](NCc1nc(-c2ccccc2)c[nH]1)c1ccccc1`, in data set [1], the pEC50 is less than 5.30.

On to `COc1cccc([C@@H](C)NCCCc2ccccc2Cl)c1` [TECALCET], for which, in data set [1], the pEC50 is 6.71. In the data set with Rattus norvegicus [2], this compound returned a CL of 65 mL/min/kg. Also, in data set [3], the Vd came to 6.8 L/kg. In addition, the MRT in data set [4] came out at 1.74 h. This compound gave an AUC with Rattus norvegicus [5] of 22 ng·h/mL. This compound registered a maximum concentration (Cmax) in the data set on Rattus norvegicus [8] of 4.2 ng/mL. For the same compound, in the data set on Rattus norvegicus [6], the F was 5%. Besides, the result in the data set on Rattus norvegicus [9] was Active.

In the case of `COc1cc([C@@H](C)N[C@H](C)c2cccc(Cl)c2)nn1-c1ccc(-c2nnn[nH]2)cc1`, in data set [1], the pEC50 was less than 5.30.

`COc1cc([C@@H](C)N[C@H](C)c2cccc(Cl)c2)nn1-c1cccc(Cl)c1`: the negative logarithm of the EC50 (pEC50) in data set [1] is 7.24.

Consider `COc1cc([C@@H](C)N[C@H](C)c2ccccc2)nn1-c1ccc(C(F)(F)F)cc1`, for which the negative-log EC50 (pEC50) in data set [1] is 7.15.

Regarding `C[C@@H](NCc1ccn(-c2ccccc2)n1)c1ccccc1`, the pEC50 in data set [1] was 5.80.

In the case of `C[C@@H](N[C@H](C)c1ccn(-c2ccc(C(F)(F)F)cc2)n1)c1cccc(Cl)c1`, in data set [1], the pEC50 is 7.04.

As a reminder, the pEC50 is the EC50 on a negative log10 scale, so that one unit is a factor of ten. For orientation: MRT means a mean duration of stay, worked out from the concentration-time curve. In general, AUC refers to the area under the concentration-time curve, a measure of exposure. Higher therefore signals more exposure. As usually defined, the Cmax is the highest concentration seen after dosing.
